In the experiment the target is T1, NR1H2 (Homo sapiens, UniProt P55055).
T1 construct: amplification of the complete open reading frame from ATG start codon to the stop codon of drugable genes; expressed in transfected cells; host or cells: primary human mesenchymal progenitor cells (MPCs), transduced with Ad5-NR1H2 and Ad-hCAR
T1 sequence (P55055 1-460): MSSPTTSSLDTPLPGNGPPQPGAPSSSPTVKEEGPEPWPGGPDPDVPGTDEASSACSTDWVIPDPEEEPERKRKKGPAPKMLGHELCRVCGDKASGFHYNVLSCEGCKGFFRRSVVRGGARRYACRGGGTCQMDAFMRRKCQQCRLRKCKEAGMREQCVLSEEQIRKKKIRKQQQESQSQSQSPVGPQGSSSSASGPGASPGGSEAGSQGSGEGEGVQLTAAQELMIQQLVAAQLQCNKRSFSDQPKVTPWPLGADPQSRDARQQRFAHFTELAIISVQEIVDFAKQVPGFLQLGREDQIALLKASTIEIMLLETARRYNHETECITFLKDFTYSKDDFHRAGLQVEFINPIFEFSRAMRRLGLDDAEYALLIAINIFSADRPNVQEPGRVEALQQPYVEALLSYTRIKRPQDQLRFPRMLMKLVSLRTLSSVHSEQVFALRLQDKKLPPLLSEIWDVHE
Description: AP assay: MPCs infected with Ad-NR1H2 and treated with ligand. It is filed as cell-based. To be noted: ligand at different concentrations. How it is done: MPCs are seeded on day0 at 1000 cells per well of a 384 well plate and co-infected the next day using AdC51-hCAR (MOI 250) and different MOIs of Ad5-NR1H3 (MOI 2000, 666). On day 1, 5 concentrations (1E-9M, 1E-8M, 1E-7M, 1E-6M, 1E-5M) of the compound T0901317 (Cayman Chemical, Michigan, USA, Cat. No. 71810) with fixed vehicle concentration (DMSO at final concentration of 0.1%) are added to the wells. After 6 days, medium is removed and replaced with fresh medium containing the same concentrations of the compound T0901317. Readouts of AP activity are performed at several time points after the start of the experiment, typically after 7, 10 and 13 days. Up-regulation of alkaline phosphatase activity is read as follows: medium is removed from the monolayers, 15 μl MUP is added to each well, the plates are incubated for 15 min at 37° C. and then read for AP activity using a fluorescence plate reader (Fluostar, BMG).
MPCs are seeded on day 0 at 1000 cells per well of a 384 well plate and co-infected the next day using AdC51-hCAR (MOI 250) and different MOIs of Ad5-NR1H2 (MOI 2000, 666). […] Readouts of AP activity are performed at several time points after the start of the experiment, typically after 7, 10 and 13 days. Up-regulation of alkaline phosphatase activity is read as follows: medium is removed from the monolayers, 15 μL MUP is added to each well, the plates are incubated for 15 min at 37° C. and then read for AP activity using a fluorescence plate reader (Fluostar, BMG).
MPCs are seeded on day0 at 1000 cells per well of a 384 well plate and co-infected the next day using AdC5′-hCAR (MOI 250) and different MOIs of Ad5-NR1H2 or Ad-NR1H3 (MOI 2000, 6000). […] Readouts of AP activity are performed at several time points after the start of the experiment, typically after 7, 10 and 13 days. Up-regulation of alkaline phosphatase activity is read as follows: medium is removed from the monolayers, 15 μl MUP is added to each well, the plates are incubated for 15 min at 37° C. and then read for AP activity using a fluorescence plate reader (Fluostar, BMG).

SMILES strings stand for the structures. “Also recorded” adds a separate entry of the source.

From patent US20060020036A1, “Methods and compositions to promote bone homestasis” (priority 2004, published 2006) come the findings set out here.

Consider `O=S(=O)(c1ccccc1)N(CC(F)(F)F)c1ccc(C(O)(C(F)(F)F)C(F)(F)F)cc1` [T0901317, N-(2,2,2-trifluoroethyl)-N-[4-[2,2,2-trifluoro-1-hydroxy-1-(trifluoromethyl)ethyl]phenyl]-benzenesulfonamide], for which the “up-regulation of endogenous alkaline phosphatase (AP) activity, dose-response” value (shortened to “up-regulation”) is reported as “dose-response relation is observed; also recorded: AP activity is up-regulated; also recorded: Dose-dependent up-regulation of AP activity”.

Regarding `CC(=O)Oc1ccc2c(c1)[C@@]1(C)CCC[C@](C)(C(=O)OC(=O)[C@@]3(C)CCC[C@]4(C)c5cc(OC(C)=O)ccc5CC[C@@H]34)[C@@H]1CC2` [APD, acetyl podocarpic dimer], the “up-regulation” value is on record as “dose-response relation is observed; also recorded: AP activity is up-regulated; also recorded: Dose-dependent up-regulation of AP activity”.

Take `O=C(O)Cc1cccc(OCCCN(Cc2cccc(C(F)(F)F)c2Cl)CC(c2ccccc2)c2ccccc2)c1` [GW3965, 2-(3-(3-(N-(2-chloro-3-(trifluoromethyl)benzyl)-N-(2,2-diphenylethyl)amino)propoxy)phenyl)acetic acid]: the “up-regulation” value was “dose-response relation is observed; also recorded: AP activity is up-regulated; also recorded: Dose-dependent up-regulation of AP activity”.
